Source: patent US7528205B2, “Photo radical generator, photo sensitive resin composition and article” (Dai Nippon Printing Co., Ltd., priority 2003, dated 2009)

Columns and labels:
[1] = Evaluation of heat resistance (thermogravimetry, 5% reduction in weight temperature); assay type: physicochemical; conditions: for 5% heat decomposition temperature: temperature rise rate 10° C./min; for 5% heat decomposition temperature / heat resistance / 5% reduction in weight temperature, comparison in words: nitrogen atmosphere; for residue on heating: heated to 600° C. in a nitrogen atmosphere; for heat resistance / 5% reduction in weight temperature, comparison in words: 10° C./min
Method: Herein, the 5% reduction in weight temperature means a temperature at which the weight of a sample is reduced […] when a decrement of weight is measured using a thermogravimetric analyzer according to the same method as in the examples of the present invention as will be explained later. Similarly, the 10% reduction in weight temperature means a temperature at which the weight of a sample is reduced […].
Using a differential type differential thermal balance (product name: TG8120; manufactured by Rigaku Corporation), the 5% reduction in weight temperature of each of the compounds 1 to 15 was measured at a temperature rise rate of 10° C./min in a nitrogen atmosphere. As comparative examples, the comparative compounds 2 and 3 and a self-cleavage type photoradical generator Irgacure 907 (trademark; manufactured by Ciba Specialty Chemicals) were similarly measured.

[2] = Evaluation 2 of curability (triethanolamine added as hydrogen donor)
Method: (§1) Using a trifunctional acrylate (product name; M-305, manufactured by Toagosei Co., Ltd.) as polyfunctional monomers, the compounds 1 to 14, the comparative compounds 2 and 3 and a photoradical generator Irgacure 907 (product name; manufactured by Ciba Specialty Chemicals) were mixed with each polyfunctional monomer to prepare each THF solution of each photoradical generator.
(§2) The mixing was performed so that a ratio of the photoradical generator to the polyfunctional monomer is such that number of imide part of each of the compounds 1 to 14 and the comparative compounds 2 and 3 with respect to number of double bond of the polyfunctional monomer is 1/50 (number of imide part/number of polyfunctional monomer) or, in the case of Irgacure, number of the molecule with respect to number of double bond of the polyfunctional monomer is 1/50 (number of Irgacure 907/number of polyfunctional monomer).
(§3) Each solution was applied by spin coating to a glass substrate on which chromium was sputtered to obtain coating layers. Also, a layer without initiator component or comparative compounds and only containing trifunctional acrylate was formed as a blank.
(§4) A decrement of the peak at 810 cm^−1 was recorded with time by using an infrared spectrometer (product name: FTS6000; manufactured by BIO RAD) while exposing the above coating layer to ultraviolet rays, to confirm the degree of the disappearance of a double bond. The atmosphere around the sample during measurement was replaced with nitrogen. As the UV exposure apparatus, UV Spot Cure SP-III type (standard reflecting mirror type) manufactured by Ushio Inc. was used and as the UV lamp, USH-255BY (manufactured by Ushio Inc.) was used.
In order to confirm whether or not the seven-membered ring imide structure-containing group was a hydrogen-drawing type radical generator, triethanolamine was added to THF solutions containing each of the compositions 1 to 14 used in the aforementioned Evaluation 1 of curability and trifunctional acrylate M305, coating layers were formed in the same manner as in the aforementioned Evaluation 1 of curability, and evaluated similarly. As comparative examples, each of the comparative compounds 1 and 3 was used.

[3] = Evaluation 1 of curability (coating layer with trifunctional acrylate, UV exposure, no hydrogen donor); conditions: for Reaction rate (decrement of double bond): nitrogen; for Compatibility with M305: imide part/double bond 1/50
Method: as §1, §2, §3, §4

Row | Compound | 5% heat decomposition temperature [1] [°C] | Compatibility with M305 [2] | Reaction rate (decrement of double bond) ([2]; Exposure 50 mJ) [%] | Reaction rate (decrement of double bond) ([2]; Exposure 100 mJ) [%] | Reaction rate (decrement of double bond) ([2]; Exposure 400 mJ) [%] | Reaction rate (decrement of double bond) ([3]; Exposure 50 mJ) [%] | Reaction rate (decrement of double bond) ([3]; Exposure 100 mJ) [%] | Reaction rate (decrement of double bond) ([3]; Exposure 400 mJ) [%] | Compatibility with M305 [3] | residue on heating [1] | heat resistance / 5% reduction in weight temperature, comparison in words [1]
1 | CC(=O)OCCn1c(=O)c2ccccc2c2ccccc2c1=O [Compound 2] | 240 | ∘ | 23.7 | 29.4 | 41.1 | 0.1 | 0.2 | 1.2 | ∘ | – | –
2 | CC(=O)OCCOCCn1c(=O)c2ccccc2c2ccccc2c1=O [Compound 3] | 260 | ∘ | 26.8 | 32.7 | 43.7 | 0.1 | 0.2 | 0.8 | ∘ | – | –
3 | CC(=O)OCC(C(C)C)n1c(=O)c2ccccc2c2ccccc2c1=O (stereo not drawn) [Compound 4] | 208 | ∘ | 22.0 | 28.2 | 40.0 | 0.2 | 0.4 | 0.9 | ∘ | – | –
4 | C=COCCCn1c(=O)c2ccccc2c2ccccc2c1=O [Compound 5] | 213 | ∘ | 23.8 | 29.2 | 41.0 | 0.4 | 0.7 | 2.3 | ∘ | – | –
5 | CC(=O)OCCOCCOCCn1c(=O)c2ccccc2c2ccccc2c1=O [Compound 6] | 257 | ∘ | 33.1 | 37.9 | 47.9 | 3.2 | 5.4 | 14.2 | ∘ | – | –
6 | C=CC(=O)OCCn1c(=O)c2ccccc2c2ccccc2c1=O [Compound 7] | 233 | ∘ | 25.3 | 30.1 | 41.3 | 1.5 | 3.4 | 7.7 | ∘ | carbide was left not decomposed completely | –
7 | C=CC(=O)OCCOCCn1c(=O)c2ccccc2c2ccccc2c1=O [Compound 8] | 357 | ∘ | 36.2 | 41.4 | 51.4 | 5.0 | 7.3 | 21.4 | ∘ | carbide was left not decomposed completely | specifically high
8 | C=CC(=O)OCCOCCOCCn1c(=O)c2ccccc2c2ccccc2c1=O [Compound 9] | 295 | ∘ | 13.8 | 19.9 | 34.4 | 0.5 | 0.7 | 1.2 | ∘ | – | –
9 | O=c1c2ccccc2c2ccccc2c(=O)n1CCOCCn1c(=O)c2ccccc2c2ccccc2c1=O [Compound 10] | 204 | ∘ | 30.8 | 40.7 | 45.9 | 4.0 | 6.8 | 17.4 | ∘ | – | –
10 | O=c1c2ccccc2c2ccccc2c(=O)n1CCOCCOCCOCCn1c(=O)c2ccccc2c2ccccc2c1=O [Compound 11] | 240 | ∘ | 18.0 | 21.3 | 29.4 | 27.9 | 37.3 | 42.3 | ∘ | – | –
11 | O=c1c2ccccc2c2ccccc2c(=O)n1CCOCCOCCOCCOCCOCCn1c(=O)c2ccccc2c2ccccc2c1=O [Compound 12] | 276 | ∘ | 25.2 | 30.7 | 40.6 | 11.0 | 15.2 | 24.8 | ∘ | – | –
12 | CN(C)CCn1c(=O)c2ccccc2c2ccccc2c1=O [Compound 13] | 177 | ∘ | 11.0 | 15.2 | 24.8 | 0.2 | 0.8 | 4.2 | ∘ | – | slightly lower 5% reduction in weight temperature
13 | CC(=O)OCCN(CCn1c(=O)c2ccccc2c2ccccc2c1=O)C(C)=O [Compound 14] | 234 | ∘ | 16.8 | 20.9 | 30.5 | 1.0 | 2.0 | 6.4 | ∘ | – | –
14 | CSc1ccc(C(=O)C(C)(C)N2CCOCC2)cc1 [Irg907, reference compound] | 207 | – | – | – | – | 34.8 | 40.8 | 50.6 | ∘ | – | –
15 | C=CC(=O)OCCN1C(=O)C2=C(CCCC2)C1=O [compound 2, reference compound] | 184 | ∘ | 1.3 | 2.0 | 8.6 | 0.1 | 0.3 | 2.0 | ∘ | – | –
